Test results published in ChEMBL document CHEMBL3885861, “Open TG-GATES”.

Organism: Rattus norvegicus
Test: Open TG-GATES - Regimen: Daily Repeat
Assay type: toxicity, organism-based, Sprague-Dawley
Set-up: regimen Daily Repeat, gender Male, age 6 weeks
Settings: in vivo, po, route gavage; for APTT / Bas / Eos / Fbg / Hb / Ht / Lym / MCH / MCHC / MCV / Mono / Neu / PT / Plat / RBC / Ret / WBC: tissue Blood; for KIDNEY_L / KIDNEY_R / KIDNEY_TOTAL: tissue Kidney; for LIVER: tissue Liver; for ALP / ALT / AST / BUN / CRE / Ca / Cl / DBIL / GLC / IP / K / LDH / Na / PL / RALB / TBIL / TC / TG / TP / gamma-GTP: tissue Plasma
[1] = 0 mg/kg, 72 h, dose level Control, time 3 day
[2] = 0 mg/kg, […], dose level Control, time 7 day
[3] = 0 mg/kg, […], dose level Control, time 14 day
[4] = 0 mg/kg, […], dose level Control, time 28 day
[5] = 2 mg/kg, 72 h, dose level Low, time 3 day
[6] = 2 mg/kg, […], dose level Low, time 7 day
[7] = 2 mg/kg, […], dose level Low, time 14 day
[8] = 2 mg/kg, […], dose level Low, time 28 day

## O=P1(N(CCCl)CCCl)NCCCO1 (stereo unspecified) [CYCLOPHOSPHAMIDE ANHYDROUS]
[1]
  TERMINAL_BW: 215.1 g
  APTT: 21.5 s
  Bas: 0%
  Eos: 0.8%
  Fbg: 293.2 mg/dL
  Hb: 13.3 g/dL
  Ht: 40.1%
  Lym: 81.4%
  MCH: 21.8 pg
  MCHC: 33.2%
  MCV: 65.7 fL
  Mono: 2.6%
  Neu: 14.6%
  PT: 16.8 s
  Plat: 112 x10_4/uL
  RBC: 611 x10_4/ul
  Ret: 6.7%
  WBC: 82.4 x10_2/uL
  KIDNEY_L: 0.9 g
  KIDNEY_R: 0.9 g
  KIDNEY_TOTAL: 1.9 g
  LIVER: 10.1 g
  ALP: 1749.2 IU/L
  ALT: 40.2 IU/L
  AST: 68 IU/L
  BUN: 15.4 mg/dL
  CRE: 0.2 mg/dL
  Ca: 10.8 mg/dL
  Cl: 106.2 meq/L
  DBIL: 0.002 mg/dL
  GLC: 182.6 mg/dL
  IP: 6.4 mg/dL
  K: 3.9 meq/L
  LDH: 190.6 IU/L
  Na: 142.6 meq/L
  PL: 133.8 mg/dL
  RALB: 3.1 g/dL
  TBIL: 0.018 mg/dL
  TC: 69.6 mg/dL
  TG: 84.2 mg/dL
  TP: 5.5 g/dL
  gamma-GTP: 1 IU/L
[2]
  TERMINAL_BW: 254.4 g
  APTT: 21.7 s
  Bas: 0%
  Eos: 1%
  Fbg: 283.2 mg/dL
  Hb: 13.1 g/dL
  Ht: 39.7%
  Lym: 80%
  MCH: 20.7 pg
  MCHC: 33.1%
  MCV: 62.7 fL
  Mono: 2.4%
  Neu: 16.2%
  PT: 16.8 s
  Plat: 112.1 x10_4/uL
  RBC: 633.4 x10_4/ul
  Ret: 6.1%
  WBC: 106.9 x10_2/uL
  KIDNEY_L: 1.1 g
  KIDNEY_R: 1.1 g
  KIDNEY_TOTAL: 2.2 g
  LIVER: 11 g
  ALP: 1566.6 IU/L
  ALT: 44.8 IU/L
  AST: 77.6 IU/L
  BUN: 18.6 mg/dL
  CRE: 0.2 mg/dL
  Ca: 10.7 mg/dL
  Cl: 106 meq/L
  DBIL: 0 mg/dL
  GLC: 196.2 mg/dL
  IP: 7.9 mg/dL
  K: 4.4 meq/L
  LDH: 200.2 IU/L
  Na: 143.8 meq/L
  PL: 146.8 mg/dL
  RALB: 2.9 g/dL
  TBIL: 0.016 mg/dL
  TC: 73.8 mg/dL
  TG: 98.2 mg/dL
  TP: 5.4 g/dL
  gamma-GTP: 1.6 IU/L
[3]
  TERMINAL_BW: 304.2 g
  APTT: 22 s
  Bas: 0%
  Eos: 1%
  Fbg: 307.8 mg/dL
  Hb: 13.7 g/dL
  Ht: 40.6%
  Lym: 81.4%
  MCH: 20.2 pg
  MCHC: 33.7%
  MCV: 60 fL
  Mono: 2.2%
  Neu: 14.6%
  PT: 15 s
  Plat: 118.8 x10_4/uL
  RBC: 676.6 x10_4/ul
  Ret: 4.8%
  WBC: 131.2 x10_2/uL
  KIDNEY_L: 1.2 g
  KIDNEY_R: 1.2 g
  KIDNEY_TOTAL: 2.4 g
  LIVER: 13.4 g
  ALP: 1394.4 IU/L
  ALT: 37.8 IU/L
  AST: 65.8 IU/L
  BUN: 18.2 mg/dL
  CRE: 0.2 mg/dL
  Ca: 10.6 mg/dL
  Cl: 107 meq/L
  DBIL: 0 mg/dL
  GLC: 182.6 mg/dL
  IP: 7 mg/dL
  K: 4 meq/L
  LDH: 152 IU/L
  Na: 143.4 meq/L
  PL: 140.4 mg/dL
  RALB: 2.9 g/dL
  TBIL: 0.012 mg/dL
  TC: 67.4 mg/dL
  TG: 147.4 mg/dL
  TP: 5.7 g/dL
  gamma-GTP: 1.4 IU/L
[4]
  TERMINAL_BW: 368.5 g
  APTT: 23.8 s
  Bas: 0%
  Eos: 1%
  Fbg: 303.8 mg/dL
  Hb: 14.8 g/dL
  Ht: 43.6%
  Lym: 82.4%
  MCH: 19.2 pg
  MCHC: 34%
  MCV: 56.6 fL
  Mono: 2%
  Neu: 13.6%
  PT: 16.5 s
  Plat: 96.2 x10_4/uL
  RBC: 769.8 x10_4/ul
  Ret: 2.9%
  WBC: 112.3 x10_2/uL
  KIDNEY_L: 1.3 g
  KIDNEY_R: 1.3 g
  KIDNEY_TOTAL: 2.6 g
  LIVER: 14.2 g
  ALP: 1084 IU/L
  ALT: 40.4 IU/L
  AST: 66.4 IU/L
  BUN: 17.4 mg/dL
  CRE: 0.2 mg/dL
  Ca: 10.3 mg/dL
  Cl: 106.6 meq/L
  DBIL: 0 mg/dL
  GLC: 181.2 mg/dL
  IP: 6.4 mg/dL
  K: 4 meq/L
  LDH: 121.8 IU/L
  Na: 144 meq/L
  PL: 135.4 mg/dL
  RALB: 3.1 g/dL
  TBIL: 0.02 mg/dL
  TC: 67 mg/dL
  TG: 111.2 mg/dL
  TP: 6.2 g/dL
  gamma-GTP: 1.2 IU/L
[5]
  TERMINAL_BW: 217.7 g
  APTT: 20.8 s
  Bas: 0%
  Eos: 1%
  Fbg: 299.8 mg/dL
  Hb: 13.3 g/dL
  Ht: 40.1%
  Lym: 79.8%
  MCH: 21.3 pg
  MCHC: 33.1%
  MCV: 64.3 fL
  Mono: 3%
  Neu: 15%
  PT: 16.5 s
  Plat: 126.5 x10_4/uL
  RBC: 624.6 x10_4/ul
  Ret: 6.5%
  WBC: 74.5 x10_2/uL
  KIDNEY_L: 1 g
  KIDNEY_R: 1 g
  KIDNEY_TOTAL: 1.9 g
  LIVER: 10.2 g
  ALP: 1778.2 IU/L
  ALT: 40.2 IU/L
  AST: 67 IU/L
  BUN: 17.8 mg/dL
  CRE: 0.2 mg/dL
  Ca: 10.8 mg/dL
  Cl: 106 meq/L
  DBIL: 0 mg/dL
  GLC: 187.4 mg/dL
  IP: 7.1 mg/dL
  K: 4.1 meq/L
  LDH: 164.8 IU/L
  Na: 141.8 meq/L
  PL: 160.8 mg/dL
  RALB: 3.1 g/dL
  TBIL: 0.012 mg/dL
  TC: 78.2 mg/dL
  TG: 121.6 mg/dL
  TP: 5.6 g/dL
  gamma-GTP: 1.2 IU/L
[6]
  TERMINAL_BW: 254.7 g
  APTT: 22.6 s
  Bas: 0%
  Eos: 0.6%
  Fbg: 282.6 mg/dL
  Hb: 13.3 g/dL
  Ht: 40.1%
  Lym: 80.8%
  MCH: 21.7 pg
  MCHC: 33.2%
  MCV: 65.3 fL
  Mono: 2.4%
  Neu: 15.4%
  PT: 16.8 s
  Plat: 130 x10_4/uL
  RBC: 613.8 x10_4/ul
  Ret: 5.8%
  WBC: 88.7 x10_2/uL
  KIDNEY_L: 1.1 g
  KIDNEY_R: 1.1 g
  KIDNEY_TOTAL: 2.3 g
  LIVER: 12 g
  ALP: 1581 IU/L
  ALT: 41.4 IU/L
  AST: 69.4 IU/L
  BUN: 16.6 mg/dL
  CRE: 0.2 mg/dL
  Ca: 10.9 mg/dL
  Cl: 105 meq/L
  DBIL: 0 mg/dL
  GLC: 184.6 mg/dL
  IP: 7.7 mg/dL
  K: 4.2 meq/L
  LDH: 193.6 IU/L
  Na: 143.2 meq/L
  PL: 158.2 mg/dL
  RALB: 3 g/dL
  TBIL: 0.02 mg/dL
  TC: 76.8 mg/dL
  TG: 137.2 mg/dL
  TP: 5.5 g/dL
  gamma-GTP: 3.6 IU/L
[7]
  TERMINAL_BW: 305.2 g
  APTT: 22.2 s
  Bas: 0%
  Eos: 0.8%
  Fbg: 315 mg/dL
  Hb: 13.9 g/dL
  Ht: 41%
  Lym: 82.6%
  MCH: 20.2 pg
  MCHC: 33.9%
  MCV: 59.7 fL
  Mono: 2.4%
  Neu: 13.2%
  PT: 14.8 s
  Plat: 121.1 x10_4/uL
  RBC: 687.8 x10_4/ul
  Ret: 4.7%
  WBC: 88.9 x10_2/uL
  KIDNEY_L: 1.2 g
  KIDNEY_R: 1.2 g
  KIDNEY_TOTAL: 2.5 g
  LIVER: 13.3 g
  ALP: 1389 IU/L
  ALT: 34.4 IU/L
  AST: 60.6 IU/L
  BUN: 18.2 mg/dL
  CRE: 0.2 mg/dL
  Ca: 10.7 mg/dL
  Cl: 107.2 meq/L
  DBIL: 0.002 mg/dL
  GLC: 174.4 mg/dL
  IP: 6.5 mg/dL
  K: 4.2 meq/L
  LDH: 141.4 IU/L
  Na: 142.8 meq/L
  PL: 150.4 mg/dL
  RALB: 3.1 g/dL
  TBIL: 0.022 mg/dL
  TC: 71.4 mg/dL
  TG: 145.6 mg/dL
  TP: 5.7 g/dL
  gamma-GTP: 2 IU/L
[8]
  TERMINAL_BW: 367.9 g
  APTT: 23.3 s
  Bas: 0%
  Eos: 1%
  Fbg: 302.6 mg/dL
  Hb: 14.7 g/dL
  Ht: 42.7%
  Lym: 78.4%
  MCH: 19.4 pg
  MCHC: 34.5%
  MCV: 56.1 fL
  Mono: 2.2%
  Neu: 17.2%
  PT: 16.4 s
  Plat: 98.2 x10_4/uL
  RBC: 761.2 x10_4/ul
  Ret: 2.6%
  WBC: 84.8 x10_2/uL
  KIDNEY_L: 1.3 g
  KIDNEY_R: 1.3 g
  KIDNEY_TOTAL: 2.6 g
  LIVER: 14.1 g
  ALP: 1055.8 IU/L
  ALT: 34.8 IU/L
  AST: 61.4 IU/L
  BUN: 18.2 mg/dL
  CRE: 0.2 mg/dL
  Ca: 10.3 mg/dL
  Cl: 105.8 meq/L
  DBIL: 0 mg/dL
  GLC: 175.2 mg/dL
  IP: 6.6 mg/dL
  K: 4 meq/L
  LDH: 131.6 IU/L
  Na: 144.2 meq/L
  PL: 141.8 mg/dL
  RALB: 3.1 g/dL
  TBIL: 0.02 mg/dL
  TC: 72.6 mg/dL
  TG: 138.4 mg/dL
  TP: 6.2 g/dL
  gamma-GTP: 1 IU/L
